“Also recorded” adds a separate entry of the source. Starred links: 1 amine or outer side, 2 acyl side, 3 side chain; linkers in the order of their positions; H or OH if unused. Positions of bridges follow the written chain, without caps; N, C: chain ends. Non-standard residues stand in square brackets, D forms with d. Residues, ends and D or L forms follow the SMILES beside them. *: point of attachment. X2 = C[C@H](Oc1ccc([C@H](N[*:1])C(=O)[*:2])cc1)[C@@]1(/C=C/C(=O)[*:3])CO1; X1 = CC(C)[C@H](O)[C@H](C)C(=O)*; aIle = CC[C@@H](C)[C@H](N)C(=O)O; dNMeF = CN[C@H](Cc1ccccc1)C(=O)O; aThr = C[C@H](O)[C@H](N)C(=O)O

In test [1] the test system is RNA synthesis in E. coli D21f2tolC. The experiment in a line: RNA synthesis in vivo ([14C]-uracil incorporation, macromolecular synthesis assay). To be noted: Sal at two times MIC; 5, 10, 15 min after addition; effect seen at earliest time point (5 min). In kind it is cell-based, Escherichia coli. The method, then:
(§1) Sal Inhibits RNA Synthesis in vivo. To determine whether Sal inhibits RNAP in vivo, effects of Sal on RNA synthesis in vivo were assayed, and, as a control, effects of Sal on DNA synthesis in vivo were assayed. Sal was added to cultures of E. coli D21f2tolC growing in media containing either a radioactively labeled RNA-synthesis precursor ([^14C]-uracil) or a radioactively labeled DNA synthesis precursor ([^14C]-thymidine); aliquots were removed and mixed with trichloroacetic acid (TCA) 0, 5, 10, and 15 min thereafter to lyse cells and precipitate nucleic acids; TCA-precipitated nucleic acids were collected by vacuum filtration; and radioactivity in TCA-precipitated nucleic acids was quantified (FIG. 2A). […] The effect was specific; addition of Sal to bacterial cultures had no effect on DNA synthesis (FIG. 2B, right panel). It is concluded that Sal inhibits RNA synthesis in vivo, and it is inferred that Sal inhibits RNAP in vivo.
(§2) Measurement of Nucleic Acid Synthesis in vivo. Macromolecular synthesis assays were performed essentially as in reference 5. […] Radioactivity was quantified using a Typhoon Variable Mode Imager and ImageQuant v5 (Molecular Dynamics, Inc.).

The subject of test [2] is DNA synthesis in E. coli D21f2tolC. The experiment in a line: DNA synthesis in vivo ([14C]-thymidine incorporation, macromolecular synthesis assay). It counts as cell-based, Escherichia coli. The settings on record: Sal at two times MIC; 5, 10, 15 min after addition. How it is done:
as §1, §2
(Uptake of a labelled nucleoside into DNA is a usual measure of proliferation.)

A further test has as its system E. coli D21f2tolC. In words: Spontaneous resistance frequency by plating on LB agar containing inhibitor. In kind it is cell-based, Escherichia coli. An excerpt: Sal-Resistant Mutants Map to RNAP-Subunit Genes. To determine whether Sal kills bacteria by inhibiting RNAP, spontaneous Sal-resistant mutants were isolated, and genes for RNAP subunits in Sal-resistant mutants were PCR-amplified and sequenced (FIG. 3A). Spontaneous Sal-resistant mutants were isolated by plating high-density cultures of E. coli D21f2tolC (˜3×10^9 cells per plate) on agar containing Sal and identifying rare resistant colonies (FIG. 3B). For each Sal-resistant mutant, genomic DNA was prepared, and the genes for the largest RNAP subunit and the second-largest RNAP subunit—rpoC encoding RNAP β′ subunit and rpoB encoding RNAP β subunit were PCR-amplified and sequenced (FIG. 3C).
Co-Administration of Sal and Rifampin Reduces Spontaneous Resistance to Undetectable Levels.
Co-Administration of Sal and CBR703 Reduces Spontaneous Resistance to Undetectable Levels.
Isolation of Sal-Resistant Mutants: Spontaneous Sal-Resistant Mutants. E. coli D21f2tolC (6) was cultured to saturation in 5 ml LB broth (7) at 37° C., cultures were centrifuged, and cell pellets (˜3×10^9 cells) were re-suspended in 50 μl LB broth and plated on LB agar (7) containing 1.2 μg/ml Sal (a concentration four times the minimal concentration required to prevent growth of wild-type cells under these conditions), and incubated 24-48 h at 37° C. Sal-resistant mutants were identified by the ability to form colonies on this medium and were confirmed by re-streaking on the same medium.

Test [3] deals with Derivatives of E. coli D21f2tolC containing rifamycin-resistant rpoB mutations. The experiment in a line: Broth microdilution cross-resistance of rifamycin-resistant mutants to Sal. It counts as cell-based, Escherichia coli. A general note: Broth dilution looks for growth in wells or tubes with falling amounts of substance.
Test [4] deals with bacterial RNA polymerase (RNAP) (Escherichia coli, UniProt P0A8T7+P0A8V2). To be noted: in vitro; reference 4; read-out: IC50, inhibition of bacterial RNA polymerase in vitro; cited from earlier work.
A further test relates to human RNAPs. The settings on record: human RNAP I, RNAP II, RNAP III; reference 4; cited from earlier work.
Another test relates to Streptococcus pneumoniae. The settings on record: references 1, 2; cited from earlier work.
For a further test, the system named is S. pyogenes. To be noted: references 1, 2; cited from earlier work.

Chain of bacterial RNA polymerase (RNAP) (P0A8V2 whole entry): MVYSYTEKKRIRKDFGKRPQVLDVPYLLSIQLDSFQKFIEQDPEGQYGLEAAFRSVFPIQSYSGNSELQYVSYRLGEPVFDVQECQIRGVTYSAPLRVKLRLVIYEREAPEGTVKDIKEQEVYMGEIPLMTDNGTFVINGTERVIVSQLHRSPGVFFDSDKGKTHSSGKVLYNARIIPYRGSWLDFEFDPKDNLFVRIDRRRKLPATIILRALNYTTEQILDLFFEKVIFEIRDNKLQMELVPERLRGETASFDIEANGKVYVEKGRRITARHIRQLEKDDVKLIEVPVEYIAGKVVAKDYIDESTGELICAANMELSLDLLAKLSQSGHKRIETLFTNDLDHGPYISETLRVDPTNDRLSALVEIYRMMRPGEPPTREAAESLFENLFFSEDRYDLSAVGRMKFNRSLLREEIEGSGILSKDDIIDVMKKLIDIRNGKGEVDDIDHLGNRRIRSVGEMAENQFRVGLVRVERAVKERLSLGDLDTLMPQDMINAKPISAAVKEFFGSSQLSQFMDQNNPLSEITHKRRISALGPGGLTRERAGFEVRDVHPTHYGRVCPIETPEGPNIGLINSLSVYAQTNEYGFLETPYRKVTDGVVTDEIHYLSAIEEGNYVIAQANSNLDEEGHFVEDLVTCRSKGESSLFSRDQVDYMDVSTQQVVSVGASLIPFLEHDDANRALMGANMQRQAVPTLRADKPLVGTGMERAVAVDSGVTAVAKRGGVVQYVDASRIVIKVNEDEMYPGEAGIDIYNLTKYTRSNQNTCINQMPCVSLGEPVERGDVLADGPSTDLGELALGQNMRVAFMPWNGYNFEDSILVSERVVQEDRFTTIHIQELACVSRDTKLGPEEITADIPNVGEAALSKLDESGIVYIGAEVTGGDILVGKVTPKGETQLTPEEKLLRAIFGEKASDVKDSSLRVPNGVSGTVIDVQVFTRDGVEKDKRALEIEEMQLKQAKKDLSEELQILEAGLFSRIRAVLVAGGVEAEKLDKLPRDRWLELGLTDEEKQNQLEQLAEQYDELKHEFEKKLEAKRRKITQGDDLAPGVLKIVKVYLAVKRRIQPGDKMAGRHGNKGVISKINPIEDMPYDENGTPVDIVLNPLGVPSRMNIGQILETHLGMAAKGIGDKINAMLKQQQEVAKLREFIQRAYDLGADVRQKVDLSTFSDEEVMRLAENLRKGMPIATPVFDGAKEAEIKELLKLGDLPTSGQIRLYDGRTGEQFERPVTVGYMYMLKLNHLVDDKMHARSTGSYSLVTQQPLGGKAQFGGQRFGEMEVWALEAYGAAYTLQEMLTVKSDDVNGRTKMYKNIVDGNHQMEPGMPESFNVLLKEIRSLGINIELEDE
Chain of bacterial RNA polymerase (RNAP) (P0A8T7 whole entry): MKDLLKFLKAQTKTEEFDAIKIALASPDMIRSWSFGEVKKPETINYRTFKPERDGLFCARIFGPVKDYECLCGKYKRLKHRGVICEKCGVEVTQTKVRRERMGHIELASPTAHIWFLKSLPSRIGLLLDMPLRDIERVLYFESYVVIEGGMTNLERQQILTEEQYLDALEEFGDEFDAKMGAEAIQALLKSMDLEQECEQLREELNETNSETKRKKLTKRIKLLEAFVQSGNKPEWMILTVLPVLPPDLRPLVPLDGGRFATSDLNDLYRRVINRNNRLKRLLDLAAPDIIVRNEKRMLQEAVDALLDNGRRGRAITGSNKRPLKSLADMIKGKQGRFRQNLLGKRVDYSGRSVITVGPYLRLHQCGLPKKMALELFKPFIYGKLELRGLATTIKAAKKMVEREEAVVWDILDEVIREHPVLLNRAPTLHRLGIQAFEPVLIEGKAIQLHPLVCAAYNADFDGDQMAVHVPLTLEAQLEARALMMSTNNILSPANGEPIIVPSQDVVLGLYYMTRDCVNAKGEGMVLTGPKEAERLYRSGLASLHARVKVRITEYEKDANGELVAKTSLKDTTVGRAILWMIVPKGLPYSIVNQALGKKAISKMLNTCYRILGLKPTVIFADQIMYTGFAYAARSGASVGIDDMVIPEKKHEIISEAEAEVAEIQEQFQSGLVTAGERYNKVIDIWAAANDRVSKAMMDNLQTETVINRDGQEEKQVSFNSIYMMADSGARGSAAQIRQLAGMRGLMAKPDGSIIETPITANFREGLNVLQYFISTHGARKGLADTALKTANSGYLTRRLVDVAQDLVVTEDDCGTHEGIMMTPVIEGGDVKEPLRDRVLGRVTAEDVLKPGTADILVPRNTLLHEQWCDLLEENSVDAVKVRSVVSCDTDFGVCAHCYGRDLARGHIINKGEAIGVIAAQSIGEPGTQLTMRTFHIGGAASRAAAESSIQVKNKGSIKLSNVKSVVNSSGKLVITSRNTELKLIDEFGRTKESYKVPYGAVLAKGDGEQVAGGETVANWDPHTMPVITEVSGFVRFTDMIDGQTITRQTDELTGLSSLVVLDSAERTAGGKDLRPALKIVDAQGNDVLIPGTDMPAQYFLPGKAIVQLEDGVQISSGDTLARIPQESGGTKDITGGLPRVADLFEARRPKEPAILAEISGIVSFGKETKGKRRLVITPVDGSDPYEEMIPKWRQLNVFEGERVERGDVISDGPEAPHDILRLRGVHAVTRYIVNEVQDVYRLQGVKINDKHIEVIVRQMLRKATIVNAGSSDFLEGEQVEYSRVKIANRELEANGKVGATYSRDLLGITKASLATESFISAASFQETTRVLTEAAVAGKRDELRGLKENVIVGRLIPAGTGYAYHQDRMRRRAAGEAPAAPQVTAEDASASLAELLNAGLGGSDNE
Chain of bacterial RNA polymerase (RNAP) (P0A7Z4 whole entry, further chain): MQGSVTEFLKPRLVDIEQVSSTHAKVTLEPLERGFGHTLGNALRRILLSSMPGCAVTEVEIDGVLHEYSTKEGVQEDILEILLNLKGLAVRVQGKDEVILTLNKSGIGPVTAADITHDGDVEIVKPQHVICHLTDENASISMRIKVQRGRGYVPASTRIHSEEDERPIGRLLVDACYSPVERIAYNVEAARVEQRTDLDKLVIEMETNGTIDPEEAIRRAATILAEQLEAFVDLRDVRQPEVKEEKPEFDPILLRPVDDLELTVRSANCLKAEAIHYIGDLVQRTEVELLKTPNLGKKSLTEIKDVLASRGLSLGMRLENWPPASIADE

A word on the IC50: it is the concentration needed to halve the response being measured. Turning to `CC[C@@H](C)[C@@H]1NC(=O)[C@H](NC(=O)[C@@H](C)[C@@H](O)C(C)C)[C@H](C)OC(=O)[C@H]2COC(=O)CNC(=O)/C=C/[C@@]3(CO3)[C@H](C)Oc3ccc(cc3)[C@H](NC1=O)C(=O)N(C)[C@H](Cc1ccccc1)C(=O)N[C@@H]([C@H](C)O)C(=O)N2` [Sal, salinamide A] (X1-[dT][aIle][X2][dNMeF][aThr][dS]; ester 1-C; linker 3-6 via G), the “effect on RNA synthesis in vivo” value in test [1] is reported as “decreased immediately; also recorded: essentially stopped”. The “effect on DNA synthesis in vivo” value in test [2] is “no effect”. Moreover, in the test on E. coli D21f2tolC (LB agar, each compound at 4×MIC, colonies counted after 24 h at 37° C.), the spontaneous resistance frequency is 4×10^−9. The “frequency of spontaneous mutation to Sal-resistance” value with E. coli D21f2tolC (~3×10^9 cells per plate, LB agar with 1.2 μg/ml Sal, 24-48 h at 37° C.) is reported as ~4 × 10^−9. Further, the “cross-resistance level (MIC/MICwild-type)” value in test [3] (rifampin-resistant mutant rpoB (RNAP β subunit) 516 Asp→Val), in test [3] (rifampin-resistant mutant rpoB (RNAP β subunit) 526 His→Asp), in test [3] (rifampin-resistant mutant rpoB (RNAP β subunit) 526 His→Tyr) and in test [3] (rifampin-resistant mutant rpoB (RNAP β subunit) 531 Ser→Leu) was 1 in each case. Moreover, in test [3] (β Asp516→Val, His526→Asp, His526→Tyr, Ser531→Leu mutants (Table 5)), the “cross-resistance of rifamycin-resistant mutants (in words)” value was “not cross-resistant; also recorded: no cross-resistance”. In addition, the IC50 in test [4] was 500 nM. The “inhibition of human RNAPs” value in the test with human RNAPs is “does not inhibit”. The antibacterial activity entry in the test on Streptococcus pneumoniae and in the test on S. pyogenes was “exhibits antibacterial activity” in each case.

(Values after patent publication US9060970B2, “Bridge-helix cap: target and method for inhibition of bacterial RNA polymerase” (priority 2011, dated 2015).)
